Data as given in ChEMBL document CHEMBL1152560, “Substituted 2-arylbenzothiazoles as kinase inhibitors: hit-to-lead optimization” (Bioorg Med Chem, 2009).

Tests used:
[1] = test system: Epidermal growth factor receptor (Homo sapiens), P00533 [T790M]; assay: Residual activity of EGFR T790M mutant at 0.1 uM by microplate scintillation counting
[2] = target: Serine/threonine-protein kinase SIK2 (Homo sapiens) (UniProt Q9H0K1); assay: Residual activity of SNF1LK2 at 1 uM by microplate scintillation counting
[3] = target: CDK6/cyclin D1 (Homo sapiens) (UniProt P24385+Q00534); assay: Residual activity of CDK6/Cyclin D1 at 10 uM by microplate scintillation counting; format: protein-complex assay
[4] = target: Cyclin-dependent kinase 7/ cyclin H (Homo sapiens) (UniProt P51946+P50613); assay: Residual activity of CDK7/CyclinH/MAT1 at 10 uM by microplate scintillation counting; format: protein-complex assay
[5] = target: T1, Serine/threonine-protein kinase D3 (Homo sapiens) (UniProt O94806); assay: Residual activity of PKCnu at 1 uM by microplate scintillation counting
T1 sequence (whole entry): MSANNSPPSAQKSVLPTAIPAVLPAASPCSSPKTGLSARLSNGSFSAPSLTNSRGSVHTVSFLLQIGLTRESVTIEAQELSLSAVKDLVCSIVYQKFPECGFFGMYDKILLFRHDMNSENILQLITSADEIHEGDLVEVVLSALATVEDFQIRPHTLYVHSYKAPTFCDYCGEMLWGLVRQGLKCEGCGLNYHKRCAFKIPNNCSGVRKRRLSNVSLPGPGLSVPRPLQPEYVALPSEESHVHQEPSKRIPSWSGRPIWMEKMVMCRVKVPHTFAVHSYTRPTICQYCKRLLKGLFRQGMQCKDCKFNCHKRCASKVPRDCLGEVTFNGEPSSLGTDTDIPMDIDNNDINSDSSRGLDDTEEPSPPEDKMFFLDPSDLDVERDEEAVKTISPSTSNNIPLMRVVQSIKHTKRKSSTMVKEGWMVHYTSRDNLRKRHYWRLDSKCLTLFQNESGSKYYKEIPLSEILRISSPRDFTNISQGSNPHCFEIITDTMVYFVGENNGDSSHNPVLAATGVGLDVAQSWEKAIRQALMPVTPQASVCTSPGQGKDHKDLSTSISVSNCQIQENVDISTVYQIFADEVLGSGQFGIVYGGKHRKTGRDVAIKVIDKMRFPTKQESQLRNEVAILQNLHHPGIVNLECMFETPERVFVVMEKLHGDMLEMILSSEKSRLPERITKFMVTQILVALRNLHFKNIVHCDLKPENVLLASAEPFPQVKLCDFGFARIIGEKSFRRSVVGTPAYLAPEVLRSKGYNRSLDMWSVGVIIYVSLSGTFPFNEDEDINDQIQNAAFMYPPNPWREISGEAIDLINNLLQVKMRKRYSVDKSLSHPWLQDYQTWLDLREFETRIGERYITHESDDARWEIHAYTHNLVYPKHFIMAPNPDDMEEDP

[6] = target: T2, Serine/threonine-protein kinase 17A (Homo sapiens) (UniProt Q9UEE5); assay: Residual activity of STK17A at 1 uM by microplate scintillation counting
T2 sequence (whole entry): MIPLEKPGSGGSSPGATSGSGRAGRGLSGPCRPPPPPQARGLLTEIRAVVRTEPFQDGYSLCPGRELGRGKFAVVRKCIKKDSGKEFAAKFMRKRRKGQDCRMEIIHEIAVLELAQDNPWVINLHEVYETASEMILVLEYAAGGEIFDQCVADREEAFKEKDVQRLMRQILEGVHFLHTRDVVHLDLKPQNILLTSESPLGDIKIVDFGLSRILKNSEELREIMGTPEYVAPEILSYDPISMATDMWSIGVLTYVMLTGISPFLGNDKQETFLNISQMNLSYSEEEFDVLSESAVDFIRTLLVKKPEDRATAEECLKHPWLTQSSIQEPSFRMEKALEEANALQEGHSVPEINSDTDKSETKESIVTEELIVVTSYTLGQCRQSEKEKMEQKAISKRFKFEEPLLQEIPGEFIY

[7] = target: Receptor-type tyrosine-protein kinase FLT3 (Homo sapiens) (UniProt P36888); assay: Residual activity of wild type FLT3 at 1 uM by microplate scintillation counting
[8] = target: CDK9/cyclin T1 (Homo sapiens) (UniProt O60563+P50750); assay: Residual activity of CDK9/Cyclin T at 10 uM by microplate scintillation counting; format: protein-complex assay
[9] = target: Ephrin type-A receptor 2 (Homo sapiens) (UniProt P29317); assay: Residual activity of EPHA2 at 0.1 uM by microplate scintillation counting
[10] = target: Proto-oncogene tyrosine-protein kinase ROS (Homo sapiens) (UniProt P08922); assay: Residual activity of ROS at 10 uM by microplate scintillation counting
[11] = target: Dual specificity protein kinase CLK1 (Homo sapiens) (UniProt P49759); assay: Residual activity of CLK1 at 10 uM by microplate scintillation counting
[12] = target: T3, Discoidin domain-containing receptor 2 (Homo sapiens) (UniProt Q16832); assay: Residual activity of DDR2 at 0.1 uM by microplate scintillation counting
T3 sequence (whole entry): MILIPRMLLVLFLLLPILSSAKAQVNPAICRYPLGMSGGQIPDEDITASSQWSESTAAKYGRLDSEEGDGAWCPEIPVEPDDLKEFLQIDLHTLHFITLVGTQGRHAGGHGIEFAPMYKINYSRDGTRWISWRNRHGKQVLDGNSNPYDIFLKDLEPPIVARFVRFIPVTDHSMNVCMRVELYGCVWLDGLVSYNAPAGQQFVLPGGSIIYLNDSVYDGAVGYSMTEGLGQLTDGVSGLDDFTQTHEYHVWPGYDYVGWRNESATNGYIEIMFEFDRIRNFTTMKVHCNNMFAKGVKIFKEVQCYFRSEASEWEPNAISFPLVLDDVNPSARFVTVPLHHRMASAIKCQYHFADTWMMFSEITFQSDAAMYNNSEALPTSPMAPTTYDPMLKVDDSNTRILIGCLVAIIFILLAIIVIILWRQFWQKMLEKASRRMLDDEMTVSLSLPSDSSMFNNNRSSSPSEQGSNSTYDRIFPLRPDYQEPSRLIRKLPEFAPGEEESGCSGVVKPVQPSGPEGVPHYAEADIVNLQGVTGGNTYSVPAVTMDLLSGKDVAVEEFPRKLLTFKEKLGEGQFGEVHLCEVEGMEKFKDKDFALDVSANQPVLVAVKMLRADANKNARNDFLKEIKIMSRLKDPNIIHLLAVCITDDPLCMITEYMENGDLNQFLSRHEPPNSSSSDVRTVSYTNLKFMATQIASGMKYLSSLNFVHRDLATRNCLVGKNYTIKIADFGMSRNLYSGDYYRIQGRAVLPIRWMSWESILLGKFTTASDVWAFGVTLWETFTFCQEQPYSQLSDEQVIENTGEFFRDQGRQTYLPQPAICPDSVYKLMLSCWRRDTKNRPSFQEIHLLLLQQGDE

[13] = target: Cyclin-dependent kinase 5/CDK5 activator 1 (Homo sapiens) (UniProt Q00535+Q15078); assay: Residual activity of CDK5/p25NCK at 10 uM by microplate scintillation counting; format: protein-complex assay
Cyclin-dependent kinase 5/CDK5 activator 1 (Homo sapiens), sequence (Q00535 whole entry): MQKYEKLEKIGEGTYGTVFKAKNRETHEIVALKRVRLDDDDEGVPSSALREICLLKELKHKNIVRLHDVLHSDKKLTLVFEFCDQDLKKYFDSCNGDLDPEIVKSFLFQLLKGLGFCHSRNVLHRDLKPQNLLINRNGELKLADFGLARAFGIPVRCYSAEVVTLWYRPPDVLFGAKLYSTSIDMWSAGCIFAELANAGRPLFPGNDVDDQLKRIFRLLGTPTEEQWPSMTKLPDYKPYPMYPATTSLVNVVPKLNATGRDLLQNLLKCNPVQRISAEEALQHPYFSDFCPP
Cyclin-dependent kinase 5/CDK5 activator 1 (Homo sapiens), sequence (Q15078 99-307 partner limits assumed): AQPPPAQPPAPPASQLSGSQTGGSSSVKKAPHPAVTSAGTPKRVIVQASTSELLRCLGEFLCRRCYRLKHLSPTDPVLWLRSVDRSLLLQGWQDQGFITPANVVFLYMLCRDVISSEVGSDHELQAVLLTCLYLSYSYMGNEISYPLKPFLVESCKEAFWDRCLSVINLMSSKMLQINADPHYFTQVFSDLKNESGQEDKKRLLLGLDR

Receptor-type tyrosine-protein kinase FLT3 (Homo sapiens), sequence (P36888 whole entry): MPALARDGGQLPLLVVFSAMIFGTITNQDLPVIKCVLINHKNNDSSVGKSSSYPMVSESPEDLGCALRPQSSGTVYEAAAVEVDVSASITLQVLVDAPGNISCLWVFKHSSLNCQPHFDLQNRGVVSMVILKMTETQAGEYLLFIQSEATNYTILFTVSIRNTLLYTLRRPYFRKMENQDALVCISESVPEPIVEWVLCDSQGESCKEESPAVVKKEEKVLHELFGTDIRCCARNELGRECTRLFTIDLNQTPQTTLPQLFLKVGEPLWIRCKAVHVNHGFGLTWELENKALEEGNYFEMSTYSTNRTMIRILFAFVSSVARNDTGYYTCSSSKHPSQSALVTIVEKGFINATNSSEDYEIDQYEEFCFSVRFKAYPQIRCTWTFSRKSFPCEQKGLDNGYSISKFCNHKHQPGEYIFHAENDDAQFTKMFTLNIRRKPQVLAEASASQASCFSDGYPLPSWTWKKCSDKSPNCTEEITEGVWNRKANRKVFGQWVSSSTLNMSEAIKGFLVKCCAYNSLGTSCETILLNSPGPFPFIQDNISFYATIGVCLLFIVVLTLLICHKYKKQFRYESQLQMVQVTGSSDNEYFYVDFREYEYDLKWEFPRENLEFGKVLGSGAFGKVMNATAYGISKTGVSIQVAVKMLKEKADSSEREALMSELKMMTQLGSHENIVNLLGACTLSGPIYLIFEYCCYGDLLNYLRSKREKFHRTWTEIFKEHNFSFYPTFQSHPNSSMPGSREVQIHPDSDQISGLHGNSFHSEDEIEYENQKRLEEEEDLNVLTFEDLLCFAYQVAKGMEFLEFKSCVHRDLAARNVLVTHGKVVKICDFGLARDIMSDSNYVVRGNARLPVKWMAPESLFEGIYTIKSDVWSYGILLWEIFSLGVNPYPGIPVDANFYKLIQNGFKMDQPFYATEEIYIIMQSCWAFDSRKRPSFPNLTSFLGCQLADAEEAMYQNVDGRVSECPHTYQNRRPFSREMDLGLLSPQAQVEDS
Serine/threonine-protein kinase SIK2 (Homo sapiens), sequence (Q9H0K1 whole entry, looked up): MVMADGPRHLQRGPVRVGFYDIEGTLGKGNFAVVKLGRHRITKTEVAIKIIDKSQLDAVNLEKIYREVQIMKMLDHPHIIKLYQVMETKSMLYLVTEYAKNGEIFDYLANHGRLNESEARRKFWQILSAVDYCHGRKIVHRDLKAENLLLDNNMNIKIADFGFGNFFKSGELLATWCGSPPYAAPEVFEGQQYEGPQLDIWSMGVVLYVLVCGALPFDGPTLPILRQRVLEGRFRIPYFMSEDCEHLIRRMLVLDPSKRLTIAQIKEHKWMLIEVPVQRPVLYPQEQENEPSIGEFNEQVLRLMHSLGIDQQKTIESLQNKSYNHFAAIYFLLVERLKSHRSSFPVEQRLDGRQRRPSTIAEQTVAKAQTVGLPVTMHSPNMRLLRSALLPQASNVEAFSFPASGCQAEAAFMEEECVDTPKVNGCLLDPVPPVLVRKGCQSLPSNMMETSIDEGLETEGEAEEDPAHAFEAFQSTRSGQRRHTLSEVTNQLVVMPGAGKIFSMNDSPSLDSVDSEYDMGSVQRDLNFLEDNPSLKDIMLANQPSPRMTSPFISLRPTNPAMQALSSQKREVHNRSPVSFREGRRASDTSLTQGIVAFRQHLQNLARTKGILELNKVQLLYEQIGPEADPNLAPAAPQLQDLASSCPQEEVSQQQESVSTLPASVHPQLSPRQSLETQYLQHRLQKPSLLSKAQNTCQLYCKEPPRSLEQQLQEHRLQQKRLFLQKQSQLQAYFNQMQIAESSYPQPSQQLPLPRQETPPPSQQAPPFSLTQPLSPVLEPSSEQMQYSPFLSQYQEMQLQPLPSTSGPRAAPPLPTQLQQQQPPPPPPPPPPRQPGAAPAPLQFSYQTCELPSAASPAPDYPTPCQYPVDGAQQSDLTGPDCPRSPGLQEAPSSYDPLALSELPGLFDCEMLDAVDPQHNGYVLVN
Proto-oncogene tyrosine-protein kinase ROS (Homo sapiens), sequence (P08922 whole entry): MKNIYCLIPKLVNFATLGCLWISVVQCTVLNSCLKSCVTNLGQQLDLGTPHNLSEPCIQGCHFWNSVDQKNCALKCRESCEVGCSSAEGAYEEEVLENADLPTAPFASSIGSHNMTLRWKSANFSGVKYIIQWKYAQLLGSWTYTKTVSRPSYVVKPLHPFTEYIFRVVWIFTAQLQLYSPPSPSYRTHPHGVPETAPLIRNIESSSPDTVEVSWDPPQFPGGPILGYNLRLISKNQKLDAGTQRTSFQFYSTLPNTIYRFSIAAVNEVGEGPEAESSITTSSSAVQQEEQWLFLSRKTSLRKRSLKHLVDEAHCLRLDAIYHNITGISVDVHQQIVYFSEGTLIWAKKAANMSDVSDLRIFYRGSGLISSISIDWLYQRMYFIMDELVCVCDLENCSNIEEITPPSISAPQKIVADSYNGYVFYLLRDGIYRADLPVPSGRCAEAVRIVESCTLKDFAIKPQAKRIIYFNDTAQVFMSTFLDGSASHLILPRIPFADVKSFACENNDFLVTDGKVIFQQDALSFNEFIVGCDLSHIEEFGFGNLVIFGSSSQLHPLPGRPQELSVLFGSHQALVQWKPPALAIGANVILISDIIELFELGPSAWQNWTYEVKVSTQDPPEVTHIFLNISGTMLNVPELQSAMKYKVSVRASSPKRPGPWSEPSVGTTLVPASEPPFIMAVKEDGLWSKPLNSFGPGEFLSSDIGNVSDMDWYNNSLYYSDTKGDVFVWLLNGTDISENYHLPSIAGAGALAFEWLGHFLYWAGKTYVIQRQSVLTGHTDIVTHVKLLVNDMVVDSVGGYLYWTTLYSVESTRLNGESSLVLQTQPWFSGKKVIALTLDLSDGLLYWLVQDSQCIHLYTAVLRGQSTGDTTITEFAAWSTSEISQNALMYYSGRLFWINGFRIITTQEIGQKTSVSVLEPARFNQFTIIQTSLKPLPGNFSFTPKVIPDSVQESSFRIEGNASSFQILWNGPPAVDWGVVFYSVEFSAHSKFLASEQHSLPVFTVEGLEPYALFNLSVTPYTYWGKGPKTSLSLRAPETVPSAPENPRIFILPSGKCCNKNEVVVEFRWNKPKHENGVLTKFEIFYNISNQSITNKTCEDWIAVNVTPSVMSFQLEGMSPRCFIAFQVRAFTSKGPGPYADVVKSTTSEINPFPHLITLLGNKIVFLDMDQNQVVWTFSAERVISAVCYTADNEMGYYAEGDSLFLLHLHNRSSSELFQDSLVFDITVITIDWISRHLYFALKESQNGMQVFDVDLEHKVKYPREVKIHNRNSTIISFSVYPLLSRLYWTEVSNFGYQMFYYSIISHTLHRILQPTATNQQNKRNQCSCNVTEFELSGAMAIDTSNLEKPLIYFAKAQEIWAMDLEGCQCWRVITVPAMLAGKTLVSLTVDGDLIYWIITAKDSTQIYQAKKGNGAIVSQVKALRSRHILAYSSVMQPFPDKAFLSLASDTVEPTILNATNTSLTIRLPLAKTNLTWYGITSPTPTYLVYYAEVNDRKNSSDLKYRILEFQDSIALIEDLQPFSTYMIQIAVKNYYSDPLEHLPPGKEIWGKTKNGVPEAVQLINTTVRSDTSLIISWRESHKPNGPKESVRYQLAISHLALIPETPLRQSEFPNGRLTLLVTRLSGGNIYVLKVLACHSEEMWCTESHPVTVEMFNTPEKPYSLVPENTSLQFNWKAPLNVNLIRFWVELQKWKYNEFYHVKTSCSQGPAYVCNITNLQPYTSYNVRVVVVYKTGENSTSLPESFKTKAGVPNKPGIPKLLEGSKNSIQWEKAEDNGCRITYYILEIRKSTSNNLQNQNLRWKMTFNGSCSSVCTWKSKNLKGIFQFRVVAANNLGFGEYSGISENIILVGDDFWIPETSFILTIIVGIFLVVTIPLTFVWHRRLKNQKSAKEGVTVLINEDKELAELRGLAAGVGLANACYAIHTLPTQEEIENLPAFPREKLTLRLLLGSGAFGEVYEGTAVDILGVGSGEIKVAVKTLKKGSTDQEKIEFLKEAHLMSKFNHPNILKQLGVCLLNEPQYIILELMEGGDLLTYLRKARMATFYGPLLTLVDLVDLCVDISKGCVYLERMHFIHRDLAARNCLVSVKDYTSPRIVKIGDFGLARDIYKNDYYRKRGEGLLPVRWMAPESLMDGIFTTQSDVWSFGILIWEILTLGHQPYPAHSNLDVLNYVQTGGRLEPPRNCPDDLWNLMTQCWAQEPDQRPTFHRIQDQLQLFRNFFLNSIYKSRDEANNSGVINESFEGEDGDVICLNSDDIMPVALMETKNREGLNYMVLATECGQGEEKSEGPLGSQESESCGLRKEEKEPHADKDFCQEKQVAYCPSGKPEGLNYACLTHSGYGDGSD

| Structure (SMILES) | residual activity [1] [%] | residual activity [2] [%] | residual activity [3] [%] | residual activity [4] [%] | residual activity [5] [%] | residual activity [6] [%] | residual activity [7] [%] | residual activity [8] [%] | residual activity [9] [%] | residual activity [10] [%] | residual activity [11] [%] | residual activity [12] [%] | residual activity [13] [%] |
| --- | --- | --- | --- | --- | --- | --- | --- | --- | --- | --- | --- | --- | --- |
| COc1cc2c(Oc3ccc(-c4nc5ccccc5s4)cc3F)ncnc2cc1OCCCN1CCN(C)CC1 | 85 | 85 | 167 | 138 | 88 | 90 | 113 | 107 | 94 | 38 | 61 | 93 | 116 |
| COc1cc2c(Oc3ccc(-c4nc5ccccc5s4)cc3)ncnc2cc1OCCCN1CCCC1 | 68 | 78 | 140 | 116 | 87 | 67 | 90 | 107 | 76 | 54 | 97 | 97 | 117 |
| COc1cc2c(Oc3ccc(-c4nc5ccccc5s4)cc3)ncnc2cc1OCCCN1CCN(C)CC1 | 97 | 88 | 193 | 130 | 83 | 62 | 97 | 109 | 99 | 47 | 83 | 88 | 112 |
